Experiments:
[1] = Determining ammonia (amine) in the gas phase above preservatives (Dräger tubes 2/a); assay type: physicochemical; conditions: amine as NH3
Procedure: (§1) • The determination of the formaldehyde content in the gas phase above various preservatives was carried out using Dräger tubes 0.2/a (No. 6733081) in accordance with the instructions for use from Dräger Safety AG & Co. KGaA (9th Edition, July 2001). For this purpose, about 100 g of the sample to be investigated were introduced into a 250 ml wide-necked beaker with a screw lid and left to stand, in the closed state, for at least 3 hours at room temperature. The measurement was read off after 2 strokes on the scale 0.5 to 5 ppm, n=10. […] 2. Method of Determining Ammonia (Amine) in the Gas Phase • The determination of the amine content in the gas phase above various preservatives was carried out using Dräger tubes 2/a (No. 6733231) in accordance with the instructions for use from Dräger Safety AG & Co. KGaA (9th Edition, July 2001). For this purpose, about 100 g of the sample to be investigated were introduced into a 250 ml wide-necked beaker with a screw lid and left to stand, in the closed state, for at least 3 hours at room temperature. The measurement was read off after one stroke on the scale. […] 3. Formaldehyde and Amine Emissions of Preservatives • In the gas phase of preservatives formulated as described below, using the methods described under 1. and 2., the following formaldehyde and amine concentrations were measured in the gas phase (Table 1): • Preservatives A, B and C were prepared by adding urea and monoethylene glycol dissolved in water to Grotan® OX and stripping off the water on a rotary evaporator (2 hours at 60° C. and 30 mbar). Preservative D (comparative) was prepared by adding monoethylene glycol to Grotan® OX.

[2] = Determining formaldehyde in the gas phase above preservatives (Dräger tubes 0.2/a); assay type: physicochemical
Procedure: 1. Method of Determining Formaldehyde in the Gas Phase
as §1

- ppm of amine ([1]; After 2 weeks (gas phase)): 15 ppm
- ppm of amine ([1]; After 11 weeks (gas phase)): 13 ppm
- ppm of amine ([1]; After 4 days (gas phase)): 10 ppm
- ppm of HCHO ([2]; After 2 weeks (gas phase)): 3-5 ppm
- ppm of HCHO ([2]; After 11 weeks (gas phase)): 0.7 ppm
- ppm of HCHO ([2]; After 4 days (gas phase)): 3 ppm
SMILES: CC1CN(CN2COC(C)C2)CO1 (stereo not drawn) [Example E, N,N′-methylenebis(5-methyloxazolidine)]

From patent US8329063B2, “Low-emission formaldehyde donor preparations” (Air Liquide Sante (International), priority 2004, dated 2012)
